Data taken from ChEMBL document CHEMBL5370527, “Hit-to-lead optimization of a pyrazinylpiperazine series against Leishmania infantum and Leishmania braziliensis” (Eur J Med Chem, 2023).

What was measured:
[1] = Selectivity index, ratio of CC50 for cytotoxicity against human THP-1 cells assessed as reduction in cell viability to IC50 for antileishmanial activity against […] stage of Leishmania braziliensis MHOM/BR/75/M2904 infected in human THP-1 cells assessed as parasite growth inhibition; assay type: toxicity, cell-based; conditions: read-out: Ratio CC50/IC50
[2] = Selectivity index, ratio of CC50 for cytotoxicity against human THP-1 cells assessed as reduction in cell viability to IC50 for antileishmanial activity against […] stage of Leishmania infantum MHOM/BR/1974/PP75 infected in human THP-1 cells assessed as parasite growth inhibition; assay type: toxicity, cell-based; conditions: read-out: Ratio CC50/IC50
Leishmania infantum = assay: Antileishmanial activity against […] stage of Leishmania infantum MHOM/BR/1974/PP75 infected in human THP-1 cells assessed as parasite growth inhibition incubated for 72 hrs by microplate reader analysis; assay type: functional, organism-based; conditions: MHOM/BR/1974/PP75, THP-1, 72 h
Leishmania braziliensis = assay: Antileishmanial activity against […] stage of Leishmania braziliensis MHOM/BR/75/M2904 infected in human THP-1 cells assessed as parasite growth inhibition incubated for 72 hrs by microplate reader analysis; assay type: functional, organism-based; conditions: MHOM/BR/75/M2904, THP-1, 72 h
[3] = Cytotoxicity against human THP-1 cells assessed as reduction in cell viability incubated for 72 hrs by alamarblue staining based analysis; assay type: toxicity
Trypanosoma cruzi = assay: Antitrypanosomal activity against Trypanosoma cruzi Tulahuen infected in mouse L929 cells assessed as parasite growth inhibition incubated for 96 hrs; assay type: functional, organism-based; conditions: L929, 96 h

| IC50 (Trypanosoma cruzi) [µM] | Structure (SMILES) | selectivity ratio [1] | selectivity ratio [2] | IC50 (Leishmania infantum) [µM] | IC50 (Leishmania braziliensis) [µM] | CC50 at 72 h [3] [µM] |
| --- | --- | --- | --- | --- | --- | --- |
|  | O=C(c1ccc(NC2CCCC2)nc1)N1CCN(c2cnccn2)CC1 | 2 | 3 | 280 | 337 | 763 |
|  | Oc1ccc(N2CCN(c3cnccn3)CC2)cc1 | > 144 | > 89 | 43.6 | 27.1 | > 3900 |
|  | O=C(c1ccc(O)cn1)N1CCN(c2cnccn2)CC1 | > 37 | > 27 | 128 | 94 | > 3500 |
| > 175 | COc1ccc(Cl)cc1C(=O)N1CCN(c2cnccn2)CC1 | 130 |  | 27.5 | 7.8 | 1010 |
|  | N[C@@H](Cc1ccc(O)cc1)C(=O)N1CCN(c2cnccn2)CC1 | 35 |  | 3.3 | 69.2 | 2410 |
|  | O=C(c1ccc(O)cc1O)N1CCN(c2cnccn2)CC1 | 23 | 20 | 21.9 | 19.1 | 443 |
|  | O=C(c1ccccn1)N1CCN(c2cnccn2)CC1 | 32 | 18 | 64.8 | 34.9 | 1130 |
|  | COc1cccc(C(=O)N2CCN(c3cnccn3)CC2)c1OC | 24 | 18 | 112 | 82.1 | 2000 |
|  | COc1ccc(C(=O)N2CCN(c3cnccn3)CC2)cn1 | 82 | 231 | 6.2 | 17.5 | 1430 |
| > 175 | O=C(c1ccccc1O)N1CCN(c2cnccn2)CC1 | 31 | 45 | 58.8 | 85.2 | 2620 |
|  | O=C(c1ccc2cc(O)ccc2c1)N1CCN(c2cnccn2)CC1 | 306 | 241 | 3.3 | 2.6 | 796 |
| > 175 | O=C(c1cccc(O)c1)N1CCN(c2cnccn2)CC1 | 156 | 87 | 25.3 | 14.1 | 2200 |
|  | O=S(=O)(c1ccc(O)cc1)N1CCN(c2cnccn2)CC1 | 22 | 16 | 157 | 113 | 2510 |
| > 175 | O=C(c1ccc(-n2cnnn2)cc1)N1CCN(c2cnccn2)CC1 | 293 | 449 | 5.8 | 8.9 | 2610 |
|  | O=C(c1ccc(N2CCCC2)nc1)N1CCN(c2cnccn2)CC1 | 48 | 53 | 5.3 | 5.9 | 280 |
|  | O=C(c1ccc(O)c(O)c1)N1CCN(c2cnccn2)CC1 | 151 | 407 | 3.5 | 9.4 | 1420 |
|  | O=C(c1ccc(O)nc1)N1CCN(c2cnccn2)CC1 | > 19 | 1460 | 176 | 184 | > 3500 |
|  | N#Cc1ccc(C(=O)N2CCN(c3cnccn3)CC2)cc1 | 57 | 81 | 15.9 | 22.7 | 1290 |
|  | O=C(/C=C/c1ccc(O)c(O)c1)N1CCN(c2cnccn2)CC1 | > 41 | > 29 | 105 | 74.6 | > 3060 |
|  | O=C(c1ccc(F)cc1O)N1CCN(c2cnccn2)CC1 | 44 | 80 | 14.2 | 25.8 | 1130 |
| > 175 | O=C(c1ccc(C(F)(F)F)cc1)N1CCN(c2cnccn2)CC1 | 8 | 5 | 84.5 | 55.7 | 421 |
